What was measured:
[1] = system: RASMC; experiment: Northern blotting of atRA-induced retinoid-response gene mRNA in cultured RASMC; details: for expression of this gene set (the 14 atRA-inducible clones): Northern blot; for Peak Fold Induction: 2×10^−6 mol/L atRA
Protocol: Rat aortic smooth muscle cells (“RASMC”) were stimulated with atRA for the indicated times and then processed for total RNA isolation and Northern blotting. Two duplicate blots were then sequentially hybridized to each of the 14 cDNAs. Scanning densitometry was performed at each time point and normalized to the corresponding GAPDH signal to ascertain the peak mRNA induction value listed in Table 2.
Cultured rat aortic SMC (RASMC) were derived from aortas of male Sprague-Dawley rats by a combined explant-enzymatic digestion procedure as described previously (Miano et al., “Expression of the Smooth Muscle Cell Calponin Gene Marks the Early Cardiac and Smooth Muscle Cell Lineages During Mouse Embryogenesis,” J. Biol. Chem. 271:7095-7103 (1996), which is hereby incorporated by reference in its entirety). These cells were grown in Dulbecco's Modified Eagle's Medium (DMEM) supplemented with 10% fetal bovine serum (FBS), 2 mM L-glutamine and antibiotics. […] Unless indicated otherwise, cells were grown on 100-mm dishes and treated with either 2×10^−mol/L all-trans-retinoic acid (atRA) or an equal volume of dimethylsulfoxide (DMSO) for various times when culture was 70-80% confluent.
Total RNA from cultured RASMC and rat tissues was isolated by the acid phenol-guanidinium isothiocyanate method (Chomczynski et al., “Single-Step Method of RNA Isolation by Acid Guanidinium Thiocyanate-Phenol-Chloroform Extraction,” Anal. Biochem. 162:156-159 (1987), which is hereby incorporated by reference in its entirety). […] Independent samples of RNA were also obtained from RASMC treated for 3, 6, 12, 24, 48, 72, 96, and 120 hr with 2×10^−6 mol/L atRA to obtain a temporal pattern of expression for each positive clone. In some experiments the effects of cycloheximide (CHX, 2.5 μg/ml) on atRA-induced gene expression were examined. […] Total RNA was size-fractionated in 1.2% agarose-formaldehyde gels, transferred to nylon membranes and then hybridized and washed following standard procedures (ExpressHyb™, CLONTECH, Palo Alto, Calif.). A rat glyceraldehyde phosphate dehydrogenase (GAPDH) or 18 S probe was used as an internal control for RNA loading. Autoradiography was performed and exposure times varied so that band intensities could be reliably quantitated using NIH Image 1.60 analysis software.

[2] = system: de novo protein synthesis; experiment: CHX effect on de novo protein synthesis and cytotoxicity; assay type: cell-based; details: CHX 2.5 μg/ml
Protocol: In some experiments the effects of cycloheximide (CHX, 2.5 μg/ml) on atRA-induced gene expression were examined.

[3] = system: RASMC; experiment: Cycloheximide (CHX) effects on atRA inducible gene expression, Northern blot; assay type: cell-based, rat; details: 2.5 μg/ml CHX
Protocol: All 4 genes show atRA-induced mRNA expression after 24 hr stimulation. […] SALF and Src-Suppressed C Kinase Substrate (“SSeCKS”) mRNA induction, however, is protein synthesis-independent. Refer to Table 2 for a complete summary of the CHX sensitivity studies.
To determine whether atRA-induced gene expression required de novo protein synthesis, rat aorta smooth muscle cell tissue was incubated with atRA in the absence or presence of cycloheximide (“CHX”) and then measured the expression of each atRA-inducible gene. […] On the other hand, atRA-induced Stoned B/TFIIAα/β-like factor (“SALF”) and Src Suppressed C Kinase Substrate (“SSeCKS”) mRNA were not blocked with CHX. In fact, there was a slight super-induction of these genes with CHX, shown in FIG. 6, which is a common characteristic of immediate early genes.

[4] = system: RASMC; experiment: RISC mRNA expression after atRA, Northern blotting, RASMC; assay type: cell-based, rat
Protocol: FIGS. 9A-B show the induction of retinoid inducible serine carboxypeptidase (“RISC”) mRNA expression by atRA in a time-dependent manner. Total RNA isolated from RASMC treated with 2.0 μM atRA for 0, 3, 6, 12, 24, 48, 72, 96, 120 h was analyzed by Northern blotting with a rat RISC cDNA probe. […] Blots were also probed with GAPDH as a control for equal loading for each lane. Data shown are representative of two independent experiments.
(§1) 10-20 μg of total RNA from RASMC, PAC-1 SMC, hCASMC or rat tissues was fractionated on 1.1% agarose gel in the presence of 0.66 mol/L formaldehyde, transferred to nylon membrane, and hybridized with a 405 nt RISC cDNA probe labeled with α-^32P-dCTP. For human tissue Northern blotting, a Human Multiple Tissue Northern Blot was obtained from CLONTECH and hybridized with a human RISC DNA probe, cloned from a human BAC (AC007114; obtained from Research Genetics, Inc., Huntsville, Ala.) by PCR. Hybridizations were carried out in Rapid-hyb buffer (Amersham Life Science, Piscataway, N.J.) or Expresshyb Hybridization Solution (CLONTECH, Palo Alto, Calif.) containing labeled probe (˜2×10^6 cpm/ml) at 62-68° C. for 1-2 h or overnight, depending on the probe used. The blots were then washed under stringent conditions and exposed to Kodak XAR films for different lengths of time. Housekeeping genes used as internal controls for equal RNA loading included glyceraldehyde 3-phosphate dehydrogenase (GAPDH), 18 S rRNA, and β-actin.

[5] = system: PAC-1 SMC; experiment: RISC mRNA expression after atRA, Northern blotting, PAC-1 SMC; assay type: cell-based, rat
Protocol: as §1

[6] = system: hCASMC; experiment: RISC mRNA expression after atRA, Northern blotting, hCASMC; assay type: cell-based, human
Protocol: as §1

[7] = system: PAC1 SMC; experiment: Growth of PAC1 SMC stably transfected with RISC (cell counts over 5 days); assay type: cell-based, rat; details: three stably transfected RISC cell lines, 10% FBS, vs empty vector (mock)
Protocol: Rat or human RISC is cloned into a suitable mammalian expression plasmid including, but not limited to, pEF1/V5-His, and verified for expression by Western blotting (using an antibody that binds the His tag of the RISC-His fusion protein) of transiently-transfected cells. For transient transfection, subconfluent cells are overlayed with a DNA-calcium-phosphate coprecipitate containing the RISC expression plasmid and then allowed to incubate overnight The following day, cells are washed with phosphate-buffered saline and re-fed fresh growth medium for an additional 24-48 hours whereupon standard cell lysates are made for protein analysis via Western blotting. […] Following two weeks of selection in G418, resistant cell “clones” cartying the RISC-His fusion protein are isolated and expanded for further analysis.
Each of three stably transfected cell lines were grown in the presence of 10% FBS for 5 days and on each day total cell numbers were calculated with a hemocytometer. […] A graph illustrating the effects on SMC growth is shown at FIG. 17.

[8] = system: ERK; experiment: RISC attenuation of ERK activity (phospho-ERK immunoblot); assay type: cell-based, rat; details: RISC expressing cells vs mock cells; 30 minutes after serum stimulation
Protocol: Stable cell lines prepared according to Example 3 were grown to subconfluence and made quiescent by serum withdrawal (typically 0.5% FBS for 24-48 hours). Cells were then stimulated with serum or a purified growth factor (PDGF-BB) to stimulate the ERK pathway. At selected times following such stimulation, standard cell extracts were prepared to analyze the activation of ERK as measured by its phosphorylated state with a phospho-specific antibody.

## CC1=C(/C=C/C(C)=C/C=C/C(C)=C\C(=O)O)C(C)(C)CCC1 [13-cis RA]
[1]
  expression of this gene set (the 14 atRA-inducible clones): elevated

## C[C@@H]1C[C@@H]([C@H](O)CC2CC(=O)NC(=O)C2)C(=O)[C@@H](C)C1 [CHX, cycloheximide]
[2]
  overt cytotoxicity: without any signs of overt cytotoxicity
  reduction of de novo protein synthesis: more than 90%
[3]; Cathepsin-L mRNA
  CHX Inhibit (atRA-induced mRNA expression): Yes
[3]; Ceruloplasmin mRNA
  CHX Inhibit (atRA-induced mRNA expression): Yes
[3]; Endolyn mRNA
  CHX Inhibit (atRA-induced mRNA expression): No
[3]; Epithelin mRNA
  CHX Inhibit (atRA-induced mRNA expression): Yes
[3]; Importin α mRNA
  CHX Inhibit (atRA-induced mRNA expression): Yes
[3]; LDH-B mRNA
  CHX Inhibit (atRA-induced mRNA expression): Yes
[3]; LOX-1 mRNA
  CHX Inhibit (atRA-induced mRNA expression): No
[3]; RDH mRNA
  CHX Inhibit (atRA-induced mRNA expression): Yes
[3]; SALF mRNA
  CHX Inhibit (atRA-induced mRNA expression): not blocked and No
[3]; SSAT mRNA
  CHX Inhibit (atRA-induced mRNA expression): attenuated and completely blocked and Yes
[3]; SSeCKS mRNA
  CHX Inhibit (atRA-induced mRNA expression): not blocked and No
[3]; VCAM-1 mRNA
  CHX Inhibit (atRA-induced mRNA expression): Yes
[3]; tTG mRNA
  CHX Inhibit (atRA-induced mRNA expression): No
[3]; α8-integrin mRNA
  CHX Inhibit (atRA-induced mRNA expression): attenuated and completely blocked and Yes
[4]; 24 hours following treatment
  CHX effect on atRA-increased RISC expression: No change in RISC expression
[4]; 48 hr following atRA treatment
  CHX effect on atRA-increased RISC expression: blocked increased RISC expression

## CC1=C(/C=C/C(C)=C/C=C/C(C)=C/C(=O)O)C(C)(C)CCC1 [atRA, all-trans-retinoic acid]
[5]
  RISC mRNA following atRA stimulation: increases in RISC mRNA
[4]
  time of peak increase in RISC mRNA following atRA stimulation: around 4 days
[4]; 2.0 μM atRA, fresh atRA applied daily, 5 day time course
  RISC mRNA levels: increased progressively
[1]; Cathepsin-L mRNA, peak at 72 hr, relative to 0 time point
  Peak Fold Induction: 3.5 (72 hr) fold
[1]; Ceruloplasmin mRNA, peak at 72 hr, relative to 0 time point
  Peak Fold Induction: 2.0 (72 hr) fold
[1]; Endolyn mRNA, peak at 96 hr, relative to 0 time point
  Peak Fold Induction: 2.0 (96 hr) fold
[1]; Epithelin mRNA, peak at 48 hr, relative to 0 time point
  Peak Fold Induction: 2.9 (48 hr) fold
[1]; Importin α mRNA, peak at 12 hr, relative to 0 time point
  Peak Fold Induction: 4.0 (12 hr) fold
[1]; LDH-B mRNA, peak at 24 hr, relative to 0 time point
  Peak Fold Induction: 4.6 (24 hr) fold
[1]; LOX-1 mRNA, peak at 3 hr, relative to 0 time point
  Peak Fold Induction: 7.2 (3 hr) fold
[1]; RDH mRNA, peak at 48 hr, relative to 3 hr time point as baseline
  Peak Fold Induction: >2.8 (48 hr) fold
[1]; SALF mRNA, peak at 3 hr, relative to 0 time point
  Peak Fold Induction: 4.1 (3 hr) fold
[1]; SSAT mRNA, peak at 48 hr, relative to 0 time point
  Peak Fold Induction: 4.8 (48 hr) fold
[1]; SSeCKS mRNA, peak at 12 hr, relative to 0 time point
  Peak Fold Induction: 4.8 (12 hr) fold
[1]; VCAM-1 mRNA, peak at 96 hr, relative to 0 time point
  Peak Fold Induction: 2.5 (96 hr) fold
[1]; tTG mRNA, peak at 12 hr, relative to 3 hr time point as baseline
  Peak Fold Induction: >4.0 (12 hr) fold
[1]; α8-integrin mRNA, peak at 72 hr, relative to 0 time point
  Peak Fold Induction: 2.4 (72 hr) fold
[6]
  RISC mRNA following atRA stimulation: increases in RISC mRNA

## CC1=C(/C=C/C(C)=C/C=C/C(C)=C/C(=O)Nc2ccc(O)cc2)C(C)(C)CCC1 [4-Hydroxyphenylretinamide]
[1]
  expression of this gene set (the 14 atRA-inducible clones): elevated

B1: RISC: retinoid inducible serine carboxypeptidase protein, expressed as RISC-His fusion protein in stably transfected PAC1 SMC (protein, UniProt Q920A6 29-452, looked up)
Retinoid-inducible serine …: LNWREQEGKEVWDYVTVREDARMFWWLYYATNPCKNFSELPLVMWLQGGPGGSSTGFGNFEEIGPLDTRLKPRNTTWLQWASLLFVDNPVGTGFSYVNTTDAYAKDLDTVASDMMVLLKSFFDCHKEFQTVPFYIFSESYGGKMAAGISLELHKAIQQGTIKCNFSGVALGDSWISPVDSVLSWGPYLYSVSLLDNKGLAEVSDIAEQVLNAVNKGFYKEATQLWGKAEMIIEKNTDGVNFYNILTKSTPDTSMESSLEFFRSPLVRLCQRHVRHLQGDALSQLMNGPIKKKLKIIPDDVSWGAQSSSVFISMEEDFMKPVIDIVDTLLELGVNVTVYNGQLDLIVDTIGQESWVQKLKWPQLSRFNQLKWKALYTNPKSSETSAFVKSYENLAFYWILKAGHMVPADQGDMALKMMRLVTQQE
modifications: His tag
notes: retinoid inducible serine carboxypeptidase protein, expressed as RISC-His fusion protein in stably transfected PAC1 SMC
[7]
  cell growth (total cell numbers by hemocytometer): significant inhibition in cell growth
[8]
  phospho-ERK activation: activated less phospho-ERK

— US20040197784A1, “Retinoid inducible proteins of vascular smooth muscle cells and uses thereof” (priority 2001, published 2004)
